US20200239530A1, “COMPOUNDS AND METHODS OF MODULATING PROTEIN DEGRADATION” (Vividion Therapeutics, Inc., priority 2017, published 2020)
Each block holds one compound with its values, some of them ahead of it.

Tests used:
Type in all cases: binding
[1] = target: Q9NXR7 (Homo sapiens, UniProt Q9NXR7); assay: Competitive cysteine profiling, probe competition (Table 2B); parameters: endogenous in cells; conditions: read-out: KB02_500 uM_percent_inhibition
Excerpt: (§1) The following 96-well sample prep protocol was used for sample preparation.

[2] = target: T1, cysteine residue illustrated in Table 1A or Table 2A (Homo sapiens, UniProt Q9Y6I7); assay: Competitive cysteine profiling of cell lysate with desthiobiotin iodoacetamide probe (96-well sample prep); conditions: UniProt Q9Y6I7; KB02 100 uM
T1 construct: Cells were resuspended in cold PBS on ice and sonicated with a probe sonicator to achieve lysis; endogenous in cells
Outline: (§2)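 Competitive profiling: compound and lysate (5 mg/ml protein) incubated 1 h at 25 °C before a 1 h, 25 °C desthiobiotin iodoacetamide probe step. Proteins were acetone-precipitated, reduced, alkylated and trypsinized; streptavidin-captured labelled peptides were eluted for MS analysis.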

[3] = target: T2, Q8N961 (Homo sapiens, UniProt Q8N961); assay: Competitive cysteine profiling, probe competition (Table 2B)
T2 construct: Cells were resuspended in cold PBS on ice and sonicated with a probe sonicator to achieve lysis; endogenous in cells
Excerpt: as §1

[4] = target: T3, A6QL63 (Homo sapiens, UniProt A6QL63); assay: as above; conditions: read-out: KB02_100 uM_percent_inhibition
T3 construct: 200 μL of lysate containing 5 mg/ml proteome was treated with 2 μL of 100× compound stock; endogenous in cells
Excerpt: as §1

[5] = target: T4, Q9NR09 (Homo sapiens, UniProt Q9NR09); assay: as above; conditions: 100 uM
T4 construct: endogenous in cells
Excerpt: as §1

[6] = target: Q99728 (Homo sapiens, UniProt Q99728); assay: as above; parameters: endogenous in cells; conditions: read-out: KB05_100 uM_percent_inhibition
Excerpt: as §1

[7] = target: T5, cysteine residue illustrated in Table 1A or Table 2A (Homo sapiens, UniProt Q6ZT12); assay: Competitive cysteine profiling of cell lysate with desthiobiotin iodoacetamide probe (96-well sample prep); conditions: UniProt Q6ZT12; KB05 100 uM
T5 construct: Cells were resuspended in cold PBS on ice and sonicated with a probe sonicator to achieve lysis; endogenous in cells
Outline: as §2

[8] = target: T6, cysteine residue illustrated in Table 1A or Table 2A (Homo sapiens, UniProt P41002); assay: as above; conditions: UniProt P41002; 100 uM
T6 construct: Cells were resuspended in cold PBS on ice and sonicated with a probe sonicator to achieve lysis; endogenous in cells
Outline: as §2

[9] = target: T7, Q96Q27 (Homo sapiens, UniProt Q96Q27); assay: Competitive cysteine profiling, probe competition (Table 2B); conditions: read-out: KB05_100 uM_percent_inhibition
T7 construct: endogenous in cells
Excerpt: as §1

[10] = target: T8, Q969K4 (Homo sapiens, UniProt Q969K4); assay: as above; conditions: read-out: KB05_100 uM_percent_inhibition
T8 construct: Cells were resuspended in cold PBS on ice and sonicated with a probe sonicator to achieve lysis; endogenous in cells
Excerpt: as §1

[11] = target: T9, cysteine residue illustrated in Table 1A or Table 2A (Homo sapiens, UniProt Q15386); assay: Competitive cysteine profiling of cell lysate with desthiobiotin iodoacetamide probe (96-well sample prep); conditions: UniProt Q15386; KB03 100 uM
T9 construct: Cells were resuspended in cold PBS on ice and sonicated with a probe sonicator to achieve lysis; endogenous in cells
Outline: as §2

[12] = target: T10, cysteine residue illustrated in Table 1A or Table 2A (Homo sapiens, UniProt Q9NZJ0); assay: as above; conditions: UniProt Q9NZJ0; 500 uM
T10 construct: Cells were resuspended in cold PBS on ice and sonicated with a probe sonicator to achieve lysis; endogenous in cells
Outline: as §2

[13] = target: T11, cysteine residue illustrated in Table 1A or Table 2A (Homo sapiens, UniProt P10074); assay: as above; conditions: UniProt P10074; KB03 100 uM
T11 construct: Cells were resuspended in cold PBS on ice and sonicated with a probe sonicator to achieve lysis; endogenous in cells
Outline: as §2

[14] = target: T12, Q9Y576 (Homo sapiens, UniProt Q9Y576); assay: Competitive cysteine profiling, probe competition (Table 2B); conditions: 100 uM
T12 construct: endogenous in cells
Excerpt: as §1

SMILES: COc1ccc2c(c1)CCCN2C(=O)CCl [KB02]
- inhibition at 500 µM [1]: 50%
- KB02_100 uM_percent_inhibition [2]: 5%
- KB02_100 uM_percent_inhibition ([3]; 100 uM): 60%
- inhibition at 100 µM ([3]; read-out: KB02_100 uM_percent_inhibition): 52%
- inhibition at 100 µM [4]: 9%
- KB02_100 uM_percent_inhibition [5]: 24%

- inhibition at 100 µM [6]: 31%
- KB05_100 uM_percent_inhibition [7]: 41%
- KB05_100 uM_percent_inhibition [8]: 49%
- inhibition at 100 µM [9]: 36%
- inhibition at 100 µM [10]: 3%
SMILES: C=CC(=O)N(c1ccccc1)c1ccc(Br)cc1 [KB05]

SMILES: O=C(CCl)Nc1cc(C(F)(F)F)cc(C(F)(F)F)c1 [KBO3]
- KB03_100 uM_percent_inhibition [11]: 16%
- KB03_500 uM_percent_inhibition [12]: 69%
- KB03_100 uM_percent_inhibition [13]: 24%
- KB03_100 uM_percent_inhibition [14]: 51%
